The values below come from patent US12441719B2, “Inhibitors of SARM1” (Disarm Therapeutics, Inc., priority 2019, dated 2025).

Each structure is given as a SMILES string.

Usually IC50 stands for the concentration at which inhibition is half-maximal.

For this test, the target named is T1, SARM1 (Homo sapiens, UniProt Q6SZW1).
T1 construct: AviTag […]; made in house; host or cells: NRK1-HEK293T cells, transiently transfected; the clarified sonicated lysate was used without purification
T1 sequence (Q6SZW1 with tags, fused parts or gaps): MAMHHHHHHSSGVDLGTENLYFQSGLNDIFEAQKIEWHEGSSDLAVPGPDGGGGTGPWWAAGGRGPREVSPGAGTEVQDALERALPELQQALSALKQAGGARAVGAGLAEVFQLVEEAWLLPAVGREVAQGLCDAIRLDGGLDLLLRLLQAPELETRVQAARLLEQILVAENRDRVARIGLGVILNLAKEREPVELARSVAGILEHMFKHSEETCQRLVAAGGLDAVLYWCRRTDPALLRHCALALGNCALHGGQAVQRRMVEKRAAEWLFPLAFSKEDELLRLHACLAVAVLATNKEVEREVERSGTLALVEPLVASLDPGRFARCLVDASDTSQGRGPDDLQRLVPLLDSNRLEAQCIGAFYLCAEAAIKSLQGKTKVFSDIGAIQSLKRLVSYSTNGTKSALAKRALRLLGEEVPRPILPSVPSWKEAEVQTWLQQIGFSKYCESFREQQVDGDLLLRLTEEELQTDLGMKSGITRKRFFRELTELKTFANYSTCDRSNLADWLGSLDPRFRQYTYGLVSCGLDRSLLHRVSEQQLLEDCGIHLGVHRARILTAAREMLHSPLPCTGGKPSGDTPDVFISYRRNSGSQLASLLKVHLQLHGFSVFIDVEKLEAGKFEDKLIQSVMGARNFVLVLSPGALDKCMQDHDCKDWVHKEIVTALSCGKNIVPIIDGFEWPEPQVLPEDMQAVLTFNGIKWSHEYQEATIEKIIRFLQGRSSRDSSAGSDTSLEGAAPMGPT
The test can be described thus: ARM-SAM-TIR SARM1 IC50 assay (NADase activity, NAD+ cleavage). In kind it is biochemical. To be noted: ARM-SAM-TIR lysate 5 μg/mL from NRK1-HEK293T cells; 2 h pre-incubation with compound, 5 μM NAD+, 2 hr room temperature; NAD+ and ADPR by RapidFire mass spectrometry; read-out: SARM1 IC50. The source says:
This Example describes an assay of ARM-SAM-TTR NADase activity and use of this assay to measure the efficacy of compounds of Formula I or Formula II to block SARM1 mediated NAD+ cleavage. This assay is optimized in such a way as to characterize the efficacy of the compounds in Formula I or Formula II to inhibit SARM1 activity and to calculate an IC50 value for each compound. This assay makes use of full length SARI, which encompasses the ARM, SAM and TTR domains.
Preparation of ARM-SAM-TIR Lysate (STL)
NRK1-HEK293T cells were seeded onto 150 cm^2 plates at 20×10^6 cells per plate. The next day, the cells were transfected with 15 μg ARM-SAM-TIR expression plasmid, SEQ ID NO: 1.
The cultures were supplemented with 1 mM NR at time of transfection to minimize toxicity from ARM-SAM-TIR overexpression. Forty-eight hours after transfection, cells were harvested, pelleted by centrifugation at 1,000 rpm (Sorvall ST 16R centrifuge, Thermo Fisher), and washed once with cold PBS (0.01 M phosphate buffered saline NaCl 0.138 M; KCl 0.0027 M; pH 7.4). The cells were resuspended in PBS with protease inhibitors (cOmplete™ protease inhibitor cocktail, Roche product #11873580001) and cell lysates were prepared by sonication (Branson Sonifer 450, output=3, 20 episodes of stroke). The lysates were centrifuged (12,000×g for 10 min at 4° C.) to remove cell debris and the supernatants (containing ARM-SAM-TIR protein) were stored at −80° C. for later use in the in vitro ARM-SAM-TIR NADase assay (see below). Protein concentration was determined by the Bicinchoninic (BCA) method and used to normalize lysate concentrations.
ARM-SAM-TIR IC50 Assay of Formula I or Formula II Compounds.
The enzymatic assay was performed in a 384-well polypropylene plate in Dulbecco's PBS buffer in a final assay volume of 20 μL. ARM-SAM-TIR lysate with a final concentration of 5 μg/mL was pre-incubated with the respective compound at 1% DMSO final assay concentration over 2 h at room temperature. The reaction was initiated by addition of 5 μM final assay concentration of NAD+ as substrate. After a 2 hr room temperature incubation, the reaction was terminated with 40 μL of stop solution of 7.5% trichloroactetic acid in acetonitrile. The NAD+ and ADPR concentrations were analyzed by a RapidFire High Throughput Mass Spectrometry System (Agilent Technologies, Santa Clara, CA) using an API4000 triple quadrupole mass spectrometer (AB Sciex Framingham, MA).
As to `CN(Cc1ccccc1)C(=O)C1CCN(c2cc(C#N)c3cc(Br)ccc3n2)CC1` [Example 125], the concentration for half-maximal inhibition (IC50) is below 5 µM.

For the compound `N#Cc1cc(N2CCC[C@H](NC(=O)c3ccncn3)C2)nc2ccc(Br)cc12` [Example 126], the concentration for half-maximal inhibition (IC50) is below 5 µM.

`N#Cc1cc(N2CCC[C@H](NC(=O)c3cn[nH]c3)C2)nc2ccc(Br)cc12` [Example 127]: the concentration for half-maximal inhibition (IC50) is below 5 µM.

Take `Cn1cc(C(=O)N[C@H]2CCCN(c3cc(C#N)c4cc(Br)ccc4n3)C2)cn1` [Example 128]: the half-maximal inhibitory concentration (IC50) was below 5 µM.

Consider `Cc1n[nH]cc1C(=O)N[C@H]1CCCN(c2cc(C#N)c3cc(Br)ccc3n2)C1` [Example 129], for which the IC50 is below 5 µM.

Regarding `Cn1cnc(C(=O)N[C@H]2CCCN(c3cc(C#N)c4cc(Br)ccc4n3)C2)c1` [Example 130], the IC50 was below 5 µM.

For `N#Cc1cc(N2CCOCC2C2CC2)nc2ccc(Cl)cc12` (centres unmarked) [Example 131], the IC50 was below 5 µM.

For the compound `N#Cc1cc(N2CCC(NS(N)(=O)=O)CC2)nc2ccc(Br)cc12` [Example 132], the IC50 was below 5 µM.

For `N#Cc1cc(N2CCC[C@H](NC(=O)c3cnccn3)C2)nc2ccc(Br)cc12` [Example 133], the IC50 is below 5 µM.

`Cc1nccnc1C(=O)N[C@H]1CCCN(c2cc(C#N)c3cc(Br)ccc3n2)C1` [Example 134]: the IC50 is below 5 µM.

As to `Cc1cncnc1C(=O)N[C@H]1CCCN(c2cc(C#N)c3cc(Br)ccc3n2)C1` [Example 135], the half-maximal inhibitory concentration (IC50) was below 5 µM.

In the case of `N#Cc1cc(N2CCC[C@H](NC(=O)c3c[nH]cn3)C2)nc2ccc(Br)cc12` [Example 136], the IC50 is below 5 µM.

On to `N#Cc1cc(N2CCC[C@H](NC(=O)N3CCOCC3)C2)nc2ccc(Br)cc12` [Example 137], for which the concentration for half-maximal inhibition (IC50) is below 5 µM.

Take `N#Cc1cc(N2CCC[C@H](NC(=O)N3CCS(=O)(=O)CC3)C2)nc2ccc(Br)cc12` [Example 138]: the IC50 is below 5 µM.

For the compound `N#Cc1cc(N2CCC[C@H](NC(=O)c3cncnc3)C2)nc2ccc(Br)cc12` [Example 139], the concentration for half-maximal inhibition (IC50) was below 5 µM.

As for `C[C@@H]1CCC[C@H](C)N1c1cc(C#N)c2cc(C#N)ccc2n1` [Example 140], the half-maximal inhibitory concentration (IC50) was below 5 µM.

As for `N#Cc1cc(N2CCC[C@@H](C(=O)NCc3cnccn3)C2)nc2ccc(Br)cc12` [Example 141], the IC50 is below 5 µM.

For `N#Cc1cc(N2CC[C@H](C(=O)N3CCCC3)C2)nc2ccc(Br)cc12` [Example 142], the IC50 is below 5 µM.

For `N#Cc1cc(N2CC[C@@H](C(=O)N3CCCC3)C2)nc2ccc(Br)cc12` [Example 143], the half-inhibitory concentration (IC50) was below 5 µM.

On to `C[C@@H]1CCC[C@H](C)N1c1cc(C#N)c2ccccc2n1` [Example 144], for which the IC50 was below 5 µM.

As to `N#Cc1cc(N2CCCC23CCOC3)nc2ccc(Br)cc12` (centres unmarked) [Example 145], the IC50 was below 5 µM.

With `N#Cc1cc(N2CCC[C@@H]2C(=O)N2CCCC2)nc2ccc(Br)cc12` [Example 146], the IC50 is below 5 µM.

As to `CC(O)c1ccc2nc(N3[C@H](C)CCC[C@@H]3C)cc(C#N)c2c1` (some centres unmarked) [Example 147], the half-inhibitory concentration (IC50) was below 5 µM.

Turning to `C[C@@H]1CCC[C@H](C)N1c1cc(C#N)c2cc(C(C)(C)O)ccc2n1` [Example 148], the IC50 is below 5 µM.

As for `C[C@@H]1CCC[C@H](C)N1c1cc(C#N)c2cc(CO)ccc2n1` [Example 149], the IC50 was below 5 µM.

Turning to `N#Cc1cc(N2CCCC(c3ccccn3)C2)nc2ccc(Br)cc12` (centres unmarked) [Example 150], the IC50 was below 5 µM.

Take `Cn1ccnc1C1CCCN(c2cc(C#N)c3cc(Br)ccc3n2)C1` (centres unmarked) [Example 151]: the IC50 was below 5 µM.

Consider `N#Cc1cc(N2CCCC(c3ncccn3)C2)nc2ccc(Br)cc12` (centres unmarked) [Example 152], for which the IC50 was below 5 µM.

Turning to `N#Cc1cc(N2CCCC(n3cccn3)C2)nc2ccc(Br)cc12` (centres unmarked) [Example 153], the IC50 was below 5 µM.
